Assay results from patent US11304949B2, “Treatment of hidradenitis suppurativa using JAK inhibitors” (Incyte Corporation, priority 2018, dated 2022).
pIC50: −log10 of the molar value.

Key:
[1] = molecular target: human JAK1 (a.a. 837-1142) (Homo sapiens, UniProt P23458); assay: In vitro JAK kinase assay (HTRF), JAK1; format: biochemical; conditions: 1 mM ATP
[2] = tested on: human JAK1 (a.a. 837-1142); assay: In vitro JAK kinase assay (HTRF), JAK1; format: biochemical; conditions: IC50 ratio at 1 mM ATP
[3] = tested on: Transformed human keratinocyte (HaCaT) cells stimulated with TNFα and IFNγ; assay: JAK inhibitors in TNFα/IFNγ stimulated keratinocytes, gene expression (QuantiGene Plex); conditions: 24 hours, normalized to HPRT1, mean ± standard error
[4] = tested on: Transformed human keratinocyte (HaCaT) cells stimulated with TNFα and IFNγ; assay: JAK inhibitors in TNFα/IFNγ stimulated keratinocytes, inflammatory mediators in media (ProCarta Multiplex Immunoassay); conditions: mean ± 1 standard error
[5] = TNFα (25 ng/mL) and IFNγ (25 ng/mL), drug 25 nM
[6] = TNFα (25 ng/mL) and IFNγ (25 ng/mL), drug 50 nM
[7] = TNFα (25 ng/mL) and IFNγ (25 ng/mL), drug 100 nM
[8] = TNFα (25 ng/mL) and IFNγ (25 ng/mL), drug 200 nM
[9] = TNFα (25 ng/mL) and IFNγ (25 ng/mL) stimulation, drug 25 nM
[10] = TNFα (25 ng/mL) and IFNγ (25 ng/mL) stimulation, drug 50 nM
[11] = TNFα (25 ng/mL) and IFNγ (25 ng/mL) stimulation, drug 100 nM
[12] = TNFα (25 ng/mL) and IFNγ (25 ng/mL) stimulation, drug 200 nM

- pIC50 [1]: > 7.00
- JAK2/JAK1 [2]: >10
SMILES: C[C@@H](O)c1nc2cnc3ccsc3c2n1[C@H]1CC[C@H](CC#N)OC1 [Compound 5, ((2R,5S)-5-{2-[(1R)-1-hydroxyethyl]-1H-imidazo[4,5-d]thieno[3,2-b]pyridin-1-yl}tetrahydro-2H-pyran-2-yl)acetonitrile]
- IL-1α MFI [3, 5]: 1269.66 ± 50.59
- IL-6 MFI [3, 5]: 132.28 ± 7.41
- JAK1 MFI [3, 5]: 200.4 ± 9.84
- JAK2 MFI [3, 5]: 108.89 ± 3.25
- JAK3 MFI [3, 5]: 0.97 ± 0.18
- STAT1 MFI [3, 5]: 3164.74 ± 242.35
- STAT3 MFI [3, 5]: 1572.76 ± 65.5
- STAT4 MFI [3, 5]: 5.4 ± 0.45
- STAT5A MFI [3, 5]: 20.12 ± 1.29
- STAT6 MFI [3, 5]: 1042.76 ± 29.23
- TYK2 MFI [3, 5]: 283.93 ± 8.16
- IL-1α MFI [3, 6]: 1336.95 ± 50.97
- IL-6 MFI [3, 6]: 137.61 ± 5.87
- JAK1 MFI [3, 6]: 210.52 ± 7.73
- JAK2 MFI [3, 6]: 106.83 ± 5.94
- JAK3 MFI [3, 6]: 0.99 ± 0.20
- STAT1 MFI [3, 6]: 3017.08 ± 167.96
- STAT3 MFI [3, 6]: 1543.4 ± 58.65
- STAT4 MFI [3, 6]: 6.1 ± 0.36
- STAT5A MFI [3, 6]: 22.69 ± 1.71
- STAT6 MFI [3, 6]: 1046.46 ± 29.12
- TYK2 MFI [3, 6]: 307.36 ± 14.87
- IL-1α MFI [3, 7]: 1244.96 ± 41.03
- IL-6 MFI [3, 7]: 122.46 ± 5.35
- JAK1 MFI [3, 7]: 200.25 ± 8.15
- JAK2 MFI [3, 7]: 102.64 ± 3.52
- JAK3 MFI [3, 7]: 1.01 ± 0.17
- STAT1 MFI [3, 7]: 2999.87 ± 197.86
- STAT3 MFI [3, 7]: 1549.17 ± 89.41
- STAT4 MFI [3, 7]: 5.83 ± 0.34
- STAT5A MFI [3, 7]: 19.54 ± 1.34
- STAT6 MFI [3, 7]: 985.1 ± 39.79
- TYK2 MFI [3, 7]: 280.63 ± 10.46
- IL-1α MFI [3, 8]: 1163.14 ± 26.71
- IL-6 MFI [3, 8]: 119.49 ± 4.42
- JAK1 MFI [3, 8]: 190.53 ± 7.68
- JAK2 MFI [3, 8]: 92.21 ± 2.9
- JAK3 MFI [3, 8]: 0.86 ± 0.16
- STAT1 MFI [3, 8]: 3161.66 ± 135.8
- STAT3 MFI [3, 8]: 1570.19 ± 51.51
- STAT4 MFI [3, 8]: 5.42 ± 0.52
- STAT5A MFI [3, 8]: 18.33 ± 1.83
- STAT6 MFI [3, 8]: 1013.25 ± 17.15
- TYK2 MFI [3, 8]: 283.28 ± 10.88
- IL-1α MFI ([3]; no stimulation, drug 200 nM): 92.67 ± 5.54
- IL-6 MFI ([3]; no stimulation, drug 200 nM): 5.15 ± 0.31
- JAK1 MFI ([3]; no stimulation, drug 200 nM): 177.97 ± 14.91
- JAK2 MFI ([3]; no stimulation, drug 200 nM): 25.67 ± 1.03
- JAK3 MFI ([3]; no stimulation, drug 200 nM): 0.71 ± 0.15
- STAT1 MFI ([3]; no stimulation, drug 200 nM): 554.64 ± 11.36
- STAT3 MFI ([3]; no stimulation, drug 200 nM): 750.90 ± 27.68
- STAT4 MFI ([3]; no stimulation, drug 200 nM): 4.32 ± 0.53
- STAT5A MFI ([3]; no stimulation, drug 200 nM): 1.99 ± 0.51
- STAT6 MFI ([3]; no stimulation, drug 200 nM): 777.03 ± 29.31
- TYK2 MFI ([3]; no stimulation, drug 200 nM): 220.78 ± 12.01
- IL-1α concentration in media [4, 9]: 6.8 ± 0.39 pg/mL
- IL-6 concentration in media [4, 9]: 743.07 ± 36.3 pg/mL
- IP-10/CXCL10 concentration in media [4, 9]: 3903.67 ± 366.97 pg/mL
- MIP1α concentration in media [4, 9]: 102.06 ± 4.18 pg/mL
- RANTES concentration in media [4, 9]: 237.57 ± 17.46 pg/mL
- IL-1α concentration in media [4, 10]: 6.76 ± 0.4 pg/mL
- IL-6 concentration in media [4, 10]: 698.04 ± 29.79 pg/mL
- IP-10/CXCL10 concentration in media [4, 10]: 3998.62 ± 456.34 pg/mL
- MIP1α concentration in media [4, 10]: 96.35 ± 3.57 pg/mL
- RANTES concentration in media [4, 10]: 237.55 ± 21.78 pg/mL
- IL-1α concentration in media [4, 11]: 6.92 ± 0.4 pg/mL
- IL-6 concentration in media [4, 11]: 703.99 ± 42.22 pg/mL
- IP-10/CXCL10 concentration in media [4, 11]: 4100.26 ± 502.48 pg/mL
- MIP1α concentration in media [4, 11]: 96.22 ± 3.58 pg/mL
- RANTES concentration in media [4, 11]: 241.39 ± 22.79 pg/mL
- IL-1α concentration in media [4, 12]: 6.3 ± 0.35 pg/mL
- IL-6 concentration in media [4, 12]: 646.2 ± 32.46 pg/mL
- IP-10/CXCL10 concentration in media [4, 12]: 4407.56 ± 645.63 pg/mL
- MIP1α concentration in media [4, 12]: 88.49 ± 5.06 pg/mL
- RANTES concentration in media [4, 12]: 238.51 ± 23.12 pg/mL
- IL-1α concentration in media ([4]; no stimulation, drug 200 nM): 0.31 ± 0.04 pg/mL
- IL-6 concentration in media ([4]; no stimulation, drug 200 nM): 28.84 ± 1.89 pg/mL
- IP-10/CXCL10 concentration in media ([4]; no stimulation, drug 200 nM): 20.39 ± 0.57 pg/mL
- MIP1α concentration in media ([4]; no stimulation, drug 200 nM): 3.11 ± 0.28 pg/mL
- RANTES concentration in media ([4]; no stimulation, drug 200 nM): 9.51 ± 0.56 pg/mL
